Source: patent publication US20060013804A1, “Modulation of stem cell differentiation by modulation of caspase-3 activity” (Ottawa Health Research Institute, priority 2002, published 2006)
Entries after “also recorded” stand apart in the source; their conditions may differ.

Key:
[1] = tested on: clonally-derived CD1 neurospheres; experiment: Neurite extensions / morphology of differentiating neurospheres; assay type: cell-based, mouse; details: differentiation media up to 5 d, 2.0 μM inhibitor, vs DMSO
Description: Neurospheres were sub-cultured no more than once per collection. The differentiation of neurospheres was initated by plating spheres on poly-L-ornithine coated plates in NeuroCult Differentiation Medium in the absence of bFGF, as per manufacturer's instructions. […] All cultures received fresh media and inhibitor every 24 h for the duration of the experiment. Neurospheres from caspase 3 null embryos (Fernando, P., et al., (2002) Proc Natl Acad Sci USA 99, 11025-11030) were cultured as described above.
Immunocytochemistry: Neurospheres were collected at selected time points, fixed in 4% paraformaldehyde and prepared for immunostaining as previously described (Fernando, P., et al., (2002) Proc Natl Acad Sci USA 99, 11025-11030)). The primary antibody concentrations for anti-nestin, -GFAP, -MBP and -active caspase 3 (BioVision, USA) were titrated on wildtype CD1 neurospheres prior to their experimental use. These antibodies were visualized by counterstaining with either FITC or Cy3 conjugated secondary antibodies (Chemicon USA). Nuclei were localized with 4′,6-Diamidino-2 phenylindole (DAPI) (Sigma, USA). Cells were visualized using either an Axiovert 100 for transmission microscopy or Axioplan 2 for fluorescent microscopy (Zeiss, Germany) at selected magnifications. Captured images were processed using AxioVision Viewer 3.0 software.
Quantitation of Neurite Extensions: Neurites from differentiating neurospheres were estimated from a total of 6-8 neurospheres per condition over three independent experiments. To quantitated neuritis, the average diameter of an individual neurosphere was estimated from the vertical and horizontal distance. The number of extensions leaving the neurosphere body were then counted and an ratio of neurosphere extensions:average neurosphere diameter was calculated for each. All measurements including neurosphere diameter were evaluated using Scion Image.

[2] = tested on: MST1; experiment: Proteolysis of in vitro translated 35S-methionine labelled MST1 by C2C12 lysates; assay type: biochemical, human; details: 35S-labelled MST1 incubated with lysates of inhibitor-treated C2C12 cells
Description: Transfection Assays. The complete open reading frame of the human MST1, [Genbank Accession No. gi|1117790] obtained from a clone bank collection (Stratagene) was inserted into the expression vector pcDNA3.1 Myc/His (Invitrogen). A constitutively active MST1 (MST1-act) was prepared as previously described (Megeney, L. A., et al., (1996) Genes Dev 10, 1173-1183). The integrity of both MST1 and MST1-act were confirmed by sequencing. The kinase activity of these protein products were verified by transient transfection into COS1 cells followed by immunoprecipitation and kinase analysis using Histone-H1 as the target substrate (see below). Transfections with MST1 and MST1-act into both COS1 and primary myoblasts were performed using Lipofectamine Plus (Gibco) as directed in the manufacturer's instructions.
In vitro translation and MST1 proteolysis. MST1-pcDNA3.1 Myc/His was in vitro transcribed and translated using a TnT T7 Coupled Wheat Germ Extract System (Promega). The labelling efficiency was verified by SDS-PAGE, Coomassie-staining and autoradiography. […] The proteolytic cleavage of MST1 was assessed by SDS-PAGE and autoradiography.
One kinase that was altered in activity co-migrated with a predicted pI (5.2) and molecular weight (36 kDa) consistent with Mammalian Sterile Twenty-like kinase (MST1). […]

[3] = tested on: p38α; experiment: Immunoprecipitation/kinase assay of p38α from neurospheres; assay type: cell-based, mouse; details: differentiation media under caspase 3 inhibition
Description: (§1) Immunoprecipitation/Kinase activity assays: Immunoprecipitation/kinase analyses were performed as previously described (Fernando, P., et al., (2002) Proc Natl Acad Sci USA 99, 11025-11030). Cellular lysates from neurospheres were generated as described above. Antibodies against apoptotic signal-regulating kinase 1 (ASK1) (Upstate, USA), p21 activated kinase 1 (PAK1) (Cell Signaling Technologies, USA), and p38 MAPK (Santa Cruz, USA) were used to immunoprecipitate respective proteins. Samples were mixed with Protein G-sepharose beads for 1 h, washed and then mixed with kinase assay buffer containing myelin basic protein (MBP) and γ-32P[ATP]. Samples were reacted at 30° C. for 30 min and separated using SDS-PAGE. In some instances, samples were transferred to PVDF membrane following electrophoresis. To quantify kinase activities, MBP acrylamide bands were excised and solubilized in scintillation fluid prior to 32P-liquid scintillation analyses. In all cases, an activated recombinant mitogen activated protein kinase activated protein-2 (MAPKAP kinase-2) (Upstate, USA) was used as an internal control for liquid scintillation analyses.
ASK1 activity was reduced when cells were treated with differentiation media containing z-DEVD (DEVD condition) compared to differentiation media alone (DMSO condition) (FIG. 19c,d). Both PAK1 and ASK1 have been linked to the downstream activity of p38 MAPK. […]

[4] = tested on: ASK1; experiment: Immunoprecipitation/kinase assay of ASK1 from neurospheres; assay type: cell-based, mouse; details: differentiation media, vs DMSO
Description: as §1
Caspase 3, when processed to its active form, is capable of targeting and activating many protein kinases that mediate cellular differentiation. […]

p38α kinase activity [3]: very low levels of p38α kinase activity
ASK1 kinase activity ([4]; listed as DEVD): decrease
ASK1 kinase activity ([4]; listed as z-DEVD): reduced
SMILES: COC(=O)CC[C@H](NC(=O)[C@H](CC(=O)OC)NC(=O)OCc1ccccc1)C(=O)N[C@H](C(=O)N[C@@H](CC(=O)OC)C(=O)CF)C(C)C [z-DEVD.fmk]
neurite extensions / morphological changes [1]: dramatic reduction in the formation of these projections; also recorded: absent
36 kDa MST1 cleavage fragment [2]: not apparent
36 kDa MST1 cleavage fragment ([2]; listed as caspase-3 inhibitor): absent in caspase-3 inhibited samples
